Reference: patent US6677338B2, “Serotonin transport inhibitors” (President and Fellows of Harvard College, priority 1997, dated 2004)
Entries after “also recorded” stand apart in the source; their conditions may differ. Like-named read-outs stand apart in the source and are kept apart here.

Key:
[1] = target: T1, Serotonin transporter (SERT) (Macaca mulatta, UniProt Q9MYX0); assay: (3H)citalopram competition binding in monkey striatum homogenates; conditions: for SERT/DAT Selectivity: fold selectivity for serotonin over dopamine transporter
T1 construct: in monkey striatum homogenates; from tissue; host or cells: monkey striatum homogenate
Procedure: Initial screening procedures for non-amines were conducted in primate striatum, a standard source of brain transporters for drug screening and for generating structure-activity relationships for this series (Table 1). […] The binding experiments were terminated by rapid filtration and radioactivity measured as described above. […] The experiments were performed in triplicate and each value is the mean ±S.E. of 2-5 independent experiments.
(§1) Values were determined by fitting data to the equation for competitive binding with EBDA computer program. Data represent the mean ±S.D. of two or more experiments.

[2] = target: T2, Dopamine transporter (DAT) (Macaca fascicularis, UniProt Q9GJT6); assay: (3H)CFT competition binding in monkey striatum homogenates
T2 construct: in monkey striatum homogenates; from tissue; host or cells: monkey striatum homogenate
Procedure: as §1

[3] = target: T3, human SERT (Homo sapiens, UniProt P31645); assay: (3H)citalopram binding in HEK-293 cells transfected with the human SERT
T3 construct: expressed in transfected cells; host or cells: HEK-293 (stably or transiently transfected, pcDNA3.1 vector)

[4] = target: T3, human SERT; assay: (3H)serotonin transport in HEK-293 cells transfected with the human SERT; assay type: cell-based; conditions: for blocked (3H)serotonin transport (in words): comparable to imipramine, fluoxetine and amitriptyline
[5] = monkey striatum, 1 nM (3H)CFT, mean ± S.D., read-out: Dopamine transporter (DAT) IC50
[6] = (3H)serotonin transport Ki, HEK-293 cells with human SERT, 20 nM (3H)serotonin, mean ± S.E.M.
[7] = HEK-293 cells with human SERT, 1 nM (3H)citalopram, mean ± S.E.M., read-out: (3H)citalopram binding Ki

T3 sequence (P31645 whole entry): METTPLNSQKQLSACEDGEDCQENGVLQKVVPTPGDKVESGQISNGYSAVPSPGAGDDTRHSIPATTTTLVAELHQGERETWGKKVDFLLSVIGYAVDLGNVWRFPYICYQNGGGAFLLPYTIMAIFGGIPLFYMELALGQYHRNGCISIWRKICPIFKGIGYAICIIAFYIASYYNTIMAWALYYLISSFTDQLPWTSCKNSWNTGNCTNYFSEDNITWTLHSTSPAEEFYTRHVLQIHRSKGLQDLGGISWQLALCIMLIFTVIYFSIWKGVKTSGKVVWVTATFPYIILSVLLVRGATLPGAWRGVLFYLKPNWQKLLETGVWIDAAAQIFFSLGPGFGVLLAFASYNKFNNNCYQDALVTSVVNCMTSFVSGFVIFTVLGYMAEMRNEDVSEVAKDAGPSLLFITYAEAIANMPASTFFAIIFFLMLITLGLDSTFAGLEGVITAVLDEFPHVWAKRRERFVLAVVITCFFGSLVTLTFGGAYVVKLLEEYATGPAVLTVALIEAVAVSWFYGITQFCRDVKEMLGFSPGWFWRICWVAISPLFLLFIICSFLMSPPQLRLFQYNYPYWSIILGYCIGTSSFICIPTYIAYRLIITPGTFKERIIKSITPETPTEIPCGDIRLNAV
T1 sequence (Q9MYX0 whole entry): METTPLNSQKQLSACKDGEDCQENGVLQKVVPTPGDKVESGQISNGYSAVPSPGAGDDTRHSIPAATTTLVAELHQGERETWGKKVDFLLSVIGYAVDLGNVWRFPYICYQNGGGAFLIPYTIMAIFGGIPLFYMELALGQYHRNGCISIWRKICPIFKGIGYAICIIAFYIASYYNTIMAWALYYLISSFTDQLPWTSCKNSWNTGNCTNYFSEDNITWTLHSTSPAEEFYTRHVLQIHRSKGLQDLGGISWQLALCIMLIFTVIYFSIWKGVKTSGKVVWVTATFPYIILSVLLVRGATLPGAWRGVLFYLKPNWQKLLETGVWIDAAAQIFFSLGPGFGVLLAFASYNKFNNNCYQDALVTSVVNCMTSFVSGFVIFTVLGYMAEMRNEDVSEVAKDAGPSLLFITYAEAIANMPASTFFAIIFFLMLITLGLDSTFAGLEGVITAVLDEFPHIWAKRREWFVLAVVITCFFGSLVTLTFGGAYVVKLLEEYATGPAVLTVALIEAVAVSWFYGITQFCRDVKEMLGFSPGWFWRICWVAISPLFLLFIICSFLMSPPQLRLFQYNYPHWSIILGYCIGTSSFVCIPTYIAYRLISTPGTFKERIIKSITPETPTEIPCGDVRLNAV
T2 sequence (Q9GJT6 whole entry): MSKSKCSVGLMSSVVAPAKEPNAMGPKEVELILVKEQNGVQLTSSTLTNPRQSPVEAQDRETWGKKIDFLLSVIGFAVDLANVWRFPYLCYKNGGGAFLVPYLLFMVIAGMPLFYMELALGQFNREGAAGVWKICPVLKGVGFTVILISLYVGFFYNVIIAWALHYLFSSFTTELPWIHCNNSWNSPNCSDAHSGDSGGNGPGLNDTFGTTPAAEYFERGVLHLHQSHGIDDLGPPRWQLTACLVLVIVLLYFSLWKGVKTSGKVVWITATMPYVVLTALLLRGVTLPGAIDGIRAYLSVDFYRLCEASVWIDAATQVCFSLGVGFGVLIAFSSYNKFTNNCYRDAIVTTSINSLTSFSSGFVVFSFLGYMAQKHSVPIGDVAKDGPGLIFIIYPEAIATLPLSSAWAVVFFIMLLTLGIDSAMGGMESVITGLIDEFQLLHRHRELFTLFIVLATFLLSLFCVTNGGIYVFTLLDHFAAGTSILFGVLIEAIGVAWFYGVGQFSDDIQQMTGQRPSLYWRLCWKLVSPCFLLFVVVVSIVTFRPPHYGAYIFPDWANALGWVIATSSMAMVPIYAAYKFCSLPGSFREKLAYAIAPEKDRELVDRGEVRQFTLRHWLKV

| Compound | IC50 [1] [nM] | SERT/DAT Selectivity ([1]; monkey striatum) | IC50 [2, 5] [nM] | Ki [3] [nM] | Ki [4, 6] [nM] | blocked (3H)serotonin transport (in words) [4] | melting point [°C] | selectivity for the serotonin over the dopamine transporter (in words) ([1]; monkey striatum) | IC50 [2] [nM] | Ki [3, 7] [nM] | Ki [4] [nM] | reduction of potency for the SERT on substitution of the 8-oxa with an 8-carba ([1]; monkey striatum, O-1391 versus O-1072) [fold] | Ki ([4]; HEK-293 cells with human SERT, 20 nM (3H)serotonin, mean ± S.E.M., read-out: (3H)serotonin transport Ki) [nM] |
| --- | --- | --- | --- | --- | --- | --- | --- | --- | --- | --- | --- | --- | --- |
| C=C(C)c1ccc(C2CC3CCC(O3)C2C(=O)OC)cc1 (racemic) [Compound O-1739, 2β-carbomethoxy-3β-(4-isopropenylphenyl)-8-oxabicyclo(3.2.1)octane] | 19.8 ± 0.75 | 52 | 1020 | 17.7 ± 6.3 | 33 ± 2 | low nanomolar range | 72.3 to 73.3 |  |  |  |  |  |  |
| CC#Cc1ccc([C@@H]2C[C@@H]3CC[C@@H](O3)[C@H]2C(=O)OC)cc1 (relative stereo) [Compound O-1585, 2β-carbomethoxy-3α-(4′-propynylphenyl)-8-oxabicyclo(3.2.1)octane] | 152 ± 26.5 | 3 | 446 ± 94 | 76.1 ± 10.5 | 56.7 ± 10.4 |  |  | moderately selective; also recorded: modest |  |  |  |  |  |
| COC(=O)[C@H]1[C@@H](c2ccc3ccccc3c2)C[C@@H]2CC[C@H]1N2C (relative stereo) [Compound O-1229, N-methyl-2β-carbomethoxy-3β(2′-naphthyl)-8-azabicyclo(3.2.1)octane] | 2.19 ± 0.18 | 0.2 |  | 1.42 ± 0.78 | 0.14 ± 0.07 |  |  |  | 0.49 ± 0.04 |  |  |  |  |
| COC(=O)[C@@H]1[C@H]2CC[C@H](C2)C[C@H]1c1ccc2ccccc2c1 (relative stereo) [Compound O-1670, 2β-carbomethoxy-3α-(2-naphthyl)-8-bicyclo(3.2.1)octane] | 77.7 ± 13.5 | 0.3 |  |  |  |  |  | relatively non-selective | 21.2 ± 4.1 | 303 ± 8.7 | 425 ± 332 |  |  |
| C=C(C)c1ccc(C2CC3CCC(O3)C2C(=O)OC)cc1 (single isomer, unassigned) [Compound O-1809, 2β-carbomethoxy-3β-(4-isopropenylphenyl)-8-oxabicyclo(3.2.1)octane] | 10.2 ± 2.1 | 99 | 1010 | 9.6 ± 1.3 | 16 ± 4 | low nanomolar range |  |  |  |  |  |  |  |
| COC(=O)[C@@H]1[C@H]2CC[C@H](C2)C[C@@H]1c1ccc(Cl)c(Cl)c1 (racemic) [Compound O-1391, 2-β-carbomethoxy-3-β-(3,4-dichlorophenyl)bicyclo(3.2.1)octane] | 33.9 ± 1.85 | 0.4 | 13.5 ± 0.9 | 10 ± 4.3 | 11.1 ± 7.44 | low nanomolar range |  | relatively non-selective |  |  |  | 7 |  |
| COC(=O)C1C(c2ccc3ccccc3c2)CC2CCC1N2C (stereo not drawn) [Compound O-1228, N-methyl-2β-carbomethoxy-3-(2′-naphthyl)-8-azabicyclo(3.2.1)octane] |  |  | 0.57 ± 0.34 |  |  |  |  |  |  | 3.26 ± 0.26 |  |  | 4.57 ± 0.37 |
| C=C(C)c1ccc([C@@H]2C[C@@H]3CC[C@@H](O3)[C@H]2C(=O)OC)cc1 (relative stereo) [Compound O-1738, 2β-carbomethoxy-3α-(4-isopropenylphenyl)-8-oxabicyclo(3.2.1)octane] | 158 ± 23 | 6 | 912 ± 100 | 218 ± 45.1 | 376 ± 74 |  |  | moderately selective |  |  |  |  |  |
| COC(=O)[C@@H]1[C@H]2CC[C@H](C2)C[C@@H]1c1ccc2ccccc2c1 (relative stereo) [Compound O-1669, 2β-carbomethoxy-3β-(2-naphthyl)-8-bicyclo(3.2.1)octane] | 72.5 ± 12.6 | 0.4 |  | 289 ± 150 | 28 ± 2 | low nanomolar range |  | relatively non-selective | 27.1 ± 0.1 |  |  |  |  |
| COC(=O)[C@H]1[C@@H](c2ccc(Cl)c(Cl)c2)C[C@@H]2CC[C@H]1O2 (relative stereo) [Compound O-1072, 2-β-carbomethoxy-3-β-(3,4-dichlorophenyl)-8-oxabicyclo(3.2.1)octane] | 4.66 ± 1.24 | 0.8 |  |  | 10 to 20 | low nanomolar range |  | relatively non-selective | 3.88 ± 0.93 |  |  |  |  |
| CC#Cc1ccc([C@H]2C[C@@H]3CC[C@@H](O3)[C@H]2C(=O)OC)cc1 (relative stereo) [Compound O-1577] | 72.4 | 8 | 545 ± 76 | 32.6 ± 7.88 | 63 ± 16.8 |  | 142 to 143 | modest |  |  |  |  |  |
